# Activity calls are given as the source filed them.
# Key:
# Type in all cases: functional
# [1] = target: DNA dC->dU-editing enzyme APOBEC-3G (Homo sapiens, UniProt Q9HC16); assay: SAR analysis of small molecule inhibitors of APOBEC3G DNA Deaminase via a fluorescence-based single-stranded DNA deaminase assay - Set 2.; settings: read-out: IC50_Mean
# [2] = target: DNA dC->dU-editing enzyme APOBEC-3A (Homo sapiens, UniProt P31941); assay: SAR analysis of small molecule inhibitors of APOBEC3A DNA Deaminase via a fluorescence-based single-stranded DNA deaminase assay - Set 2.; settings: read-out: IC50_Mean
# [3] = target: Cyclin-dependent kinase 8 (Homo sapiens, UniProt P49336); assay: Navigating the Kinome. Panel member name: CDK8
# Aurora kinase A = Aurora kinase A (Homo sapiens, UniProt O14965);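 note: value from the Navigating the Kinome kinase panel profiling, panel entry STK6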
# [4] = target: Mitogen-activated protein kinase 9 (Homo sapiens, UniProt P45984);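 note: value from a kinome panel profiling assay, MAPK9 panel entry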
# [5] = target: ALK tyrosine kinase receptor (Homo sapiens, UniProt Q9UM73);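 note: ALK tested as one member of a kinase panel screen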
# [6] = target: Serine/threonine-protein kinase N2 (Homo sapiens, UniProt Q16513)
# [7] = target: Glycogen synthase kinase-3 alpha (Homo sapiens, UniProt P49840);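 note: GSK3A result taken from a broad kinome-wide kinase panel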
# [8] = target: cAMP-dependent protein kinase catalytic subunit PRKX (Homo sapiens, UniProt P51817)
# [9] = target: Inhibitor of nuclear factor kappa-B kinase subunit epsilon (Homo sapiens, UniProt Q14164); assay: Navigating the Kinome. Panel member name: IKBKE
# [10] = target: Proto-oncogene tyrosine-protein kinase receptor Ret (Homo sapiens, UniProt P07949);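 note: measured within a kinome-wide profiling panel, RET as the panel member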
# [11] = target: 5'-AMP-activated protein kinase catalytic subunit alpha-1 (Homo sapiens, UniProt Q13131)
# [12] = target: Tyrosine-protein kinase Fyn (Homo sapiens, UniProt P06241)
# [13] = target: Protein kinase C theta type (Homo sapiens, UniProt Q04759); assay: Navigating the Kinome. Panel member name: PRKCQ
# [14] = target: Dual specificity protein kinase CLK4 (Homo sapiens, UniProt Q9HAZ1)
# [15] = target: Cyclin-dependent kinase 19 (Homo sapiens, UniProt Q9BWU1); assay: Navigating the Kinome. Panel member name: CDC2L6
# [16] = target: Vascular endothelial growth factor receptor 2 (Homo sapiens, UniProt P35968)
# [17] = target: Leukocyte tyrosine kinase receptor (Homo sapiens, UniProt P29376); assay: Navigating the Kinome. Panel member name: LTK
# [18] = target: Receptor-type tyrosine-protein kinase FLT3 (Homo sapiens, UniProt P36888);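 note: FLT3 was tested as one member of a kinome-wide kinase panel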
# [19] = target: Fibroblast growth factor receptor 1 (Homo sapiens, UniProt P11362)
# [20] = target: Platelet-derived growth factor receptor alpha (Homo sapiens, UniProt P16234); assay: Navigating the Kinome. Panel member name: PDGFRA
# [21] = target: Dual specificity tyrosine-phosphorylation-regulated kinase 1A (Homo sapiens, UniProt Q13627);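 note: measured against DYRK1A as one member of a broad kinome profiling panel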
# [22] = target: Calcium/calmodulin-dependent protein kinase type II subunit alpha (Homo sapiens, UniProt Q9UQM7); assay: Navigating the Kinome. Panel member name: CAMK2A
# [23] = target: Glycogen synthase kinase-3 beta (Homo sapiens, UniProt P49841);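 note: value comes from a broad kinome profiling panel, with GSK3B as the panel member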
# [24] = target: Tyrosine-protein kinase Lck (Homo sapiens, UniProt P06239);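 note: lck was assayed as one member of a kinase panel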
# [25] = target: Dual specificity mitogen-activated protein kinase kinase 2 (Homo sapiens, UniProt P36507); assay: Navigating the Kinome. Panel member name: MAP2K2
# [26] = target: Mitogen-activated protein kinase kinase kinase kinase 2 (Homo sapiens, UniProt Q12851);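 note: measured as one member of a kinome-wide kinase panel, with MAP4K2 as the panel entry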
# [27] = target: Cyclin-dependent kinase 5 (Homo sapiens, UniProt Q00535);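 note: CDK5 measured as one member of a kinase profiling panel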
# [28] = target: Mitogen-activated protein kinase kinase kinase kinase 4 (Homo sapiens, UniProt O95819)
# [29] = target: Mitogen-activated protein kinase kinase kinase kinase 5 (Homo sapiens, UniProt Q9Y4K4);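 note: measured as one member of a kinome-spanning kinase panel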
# [30] = target: cAMP-dependent protein kinase catalytic subunit alpha (Homo sapiens, UniProt P17612)
# [31] = target: Serine/threonine-protein kinase D3 (Homo sapiens, UniProt O94806);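 note: determined within a kinase panel screen, with PRKCN as the panel member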
# [32] = target: Dual specificity mitogen-activated protein kinase kinase 1 (Homo sapiens, UniProt Q02750); assay: Navigating the Kinome. Panel member name: MAP2K1
# [33] = target: Mitogen-activated protein kinase 14 (Homo sapiens, UniProt Q16539);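 note: part of a kinome-wide panel, MAPK14 entry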
# [34] = target: Mast/stem cell growth factor receptor Kit (Homo sapiens, UniProt P10721);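 note: KIT entry within a kinase panel assay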
# [35] = target: Tyrosine-protein kinase BTK (Homo sapiens, UniProt Q06187)
# [36] = target: Dual specificity tyrosine-phosphorylation-regulated kinase 1B (Homo sapiens, UniProt Q9Y463); assay: Navigating the Kinome. Panel member name: DYRK1B
# [37] = target: BDNF/NT-3 growth factors receptor (Homo sapiens, UniProt Q16620);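 note: NTRK2 measured as one member of a broad kinome-wide kinase profiling panel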
# [38] = target: Tyrosine-protein kinase JAK3 (Homo sapiens, UniProt P52333)
# [39] = target: Cyclin-dependent kinase 9 (Homo sapiens, UniProt P50750);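 note: value from the CDK9 entry of a kinome-spanning kinase panel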
# [40] = target: Macrophage colony-stimulating factor 1 receptor (Homo sapiens, UniProt P07333);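 note: value comes from the Navigating the Kinome screening panel, CSF1R member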
# [41] = target: Serine/threonine-protein kinase TBK1 (Homo sapiens, UniProt Q9UHD2); assay: Navigating the Kinome. Panel member name: TBK1
# [42] = target: High affinity nerve growth factor receptor (Homo sapiens, UniProt P04629);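 note: NTRK1 tested as one member of a kinome-wide profiling panel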
# [43] = target: Vascular endothelial growth factor receptor 1 (Homo sapiens, UniProt P17948);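 note: measured within a kinome-wide profiling panel, FLT1 as the panel member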
# Activin receptor type-1 = Activin receptor type-1 (Homo sapiens, UniProt Q04771); assay: Navigating the Kinome. Panel member name: ACVR1
# [44] = target: Mitogen-activated protein kinase 8 (Homo sapiens, UniProt P45983);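 note: value comes from one member of a kinome-wide kinase profiling panel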
# [45] = target: Tyrosine-protein kinase receptor TYRO3 (Homo sapiens, UniProt Q06418);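 note: TYRO3 value obtained as one member of a kinome-wide profiling panel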
# [46] = target: Insulin-like growth factor 1 receptor (Homo sapiens, UniProt P08069); assay: Navigating the Kinome. Panel member name: IGF1R
# [47] = target: Dual specificity protein kinase CLK2 (Homo sapiens, UniProt P49760)
# [48] = target: Serine/threonine-protein kinase TAO1 (Homo sapiens, UniProt Q7L7X3)
# [49] = target: Leucine-rich repeat serine/threonine-protein kinase 2 (Homo sapiens, UniProt Q5S007);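 note: value from a broad kinome-wide panel profiling study in which LRRK2 was one of the kinases tested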
# [50] = target: Tyrosine-protein kinase ABL1 (Homo sapiens, UniProt P00519)
# [51] = target: Serine/threonine-protein kinase pim-1 (Homo sapiens, UniProt P11309)
# [52] = target: Tyrosine-protein kinase JAK2 (Homo sapiens, UniProt O60674);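 note: JAK2 tested as one member of a kinase panel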
# [53] = target: Death-associated protein kinase 3 (Homo sapiens, UniProt O43293);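 note: measured as one member of a kinome-wide profiling panel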
# [54] = target: Macrophage-stimulating protein receptor (Homo sapiens, UniProt Q04912); assay: Navigating the Kinome. Panel member name: MST1R
# Activated CDC42 kinase 1 = Activated CDC42 kinase 1 (Homo sapiens, UniProt Q07912); assay: Navigating the Kinome. Panel member name: ACK1
# [55] = target: G protein-coupled receptor kinase 5 (Homo sapiens, UniProt P34947); assay: Navigating the Kinome. Panel member name: GPRK5
# Chain of Tyrosine-protein kinase Lck (P06239 whole entry): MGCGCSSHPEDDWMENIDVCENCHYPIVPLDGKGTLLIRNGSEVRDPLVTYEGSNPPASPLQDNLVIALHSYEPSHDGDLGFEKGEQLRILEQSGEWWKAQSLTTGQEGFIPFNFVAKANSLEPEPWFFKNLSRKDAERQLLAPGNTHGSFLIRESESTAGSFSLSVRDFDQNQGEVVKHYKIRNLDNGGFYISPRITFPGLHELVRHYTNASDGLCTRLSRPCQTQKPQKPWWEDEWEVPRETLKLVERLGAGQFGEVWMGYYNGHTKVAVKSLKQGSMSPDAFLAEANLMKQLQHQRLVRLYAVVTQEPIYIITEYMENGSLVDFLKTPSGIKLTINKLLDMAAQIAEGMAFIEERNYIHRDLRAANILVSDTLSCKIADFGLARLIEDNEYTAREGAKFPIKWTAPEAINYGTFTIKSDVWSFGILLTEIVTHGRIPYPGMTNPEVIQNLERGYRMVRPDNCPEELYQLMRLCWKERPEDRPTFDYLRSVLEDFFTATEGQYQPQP
# Chain of Leucine-rich repeat serine/threonine-protein kinase 2 (Q5S007 whole entry): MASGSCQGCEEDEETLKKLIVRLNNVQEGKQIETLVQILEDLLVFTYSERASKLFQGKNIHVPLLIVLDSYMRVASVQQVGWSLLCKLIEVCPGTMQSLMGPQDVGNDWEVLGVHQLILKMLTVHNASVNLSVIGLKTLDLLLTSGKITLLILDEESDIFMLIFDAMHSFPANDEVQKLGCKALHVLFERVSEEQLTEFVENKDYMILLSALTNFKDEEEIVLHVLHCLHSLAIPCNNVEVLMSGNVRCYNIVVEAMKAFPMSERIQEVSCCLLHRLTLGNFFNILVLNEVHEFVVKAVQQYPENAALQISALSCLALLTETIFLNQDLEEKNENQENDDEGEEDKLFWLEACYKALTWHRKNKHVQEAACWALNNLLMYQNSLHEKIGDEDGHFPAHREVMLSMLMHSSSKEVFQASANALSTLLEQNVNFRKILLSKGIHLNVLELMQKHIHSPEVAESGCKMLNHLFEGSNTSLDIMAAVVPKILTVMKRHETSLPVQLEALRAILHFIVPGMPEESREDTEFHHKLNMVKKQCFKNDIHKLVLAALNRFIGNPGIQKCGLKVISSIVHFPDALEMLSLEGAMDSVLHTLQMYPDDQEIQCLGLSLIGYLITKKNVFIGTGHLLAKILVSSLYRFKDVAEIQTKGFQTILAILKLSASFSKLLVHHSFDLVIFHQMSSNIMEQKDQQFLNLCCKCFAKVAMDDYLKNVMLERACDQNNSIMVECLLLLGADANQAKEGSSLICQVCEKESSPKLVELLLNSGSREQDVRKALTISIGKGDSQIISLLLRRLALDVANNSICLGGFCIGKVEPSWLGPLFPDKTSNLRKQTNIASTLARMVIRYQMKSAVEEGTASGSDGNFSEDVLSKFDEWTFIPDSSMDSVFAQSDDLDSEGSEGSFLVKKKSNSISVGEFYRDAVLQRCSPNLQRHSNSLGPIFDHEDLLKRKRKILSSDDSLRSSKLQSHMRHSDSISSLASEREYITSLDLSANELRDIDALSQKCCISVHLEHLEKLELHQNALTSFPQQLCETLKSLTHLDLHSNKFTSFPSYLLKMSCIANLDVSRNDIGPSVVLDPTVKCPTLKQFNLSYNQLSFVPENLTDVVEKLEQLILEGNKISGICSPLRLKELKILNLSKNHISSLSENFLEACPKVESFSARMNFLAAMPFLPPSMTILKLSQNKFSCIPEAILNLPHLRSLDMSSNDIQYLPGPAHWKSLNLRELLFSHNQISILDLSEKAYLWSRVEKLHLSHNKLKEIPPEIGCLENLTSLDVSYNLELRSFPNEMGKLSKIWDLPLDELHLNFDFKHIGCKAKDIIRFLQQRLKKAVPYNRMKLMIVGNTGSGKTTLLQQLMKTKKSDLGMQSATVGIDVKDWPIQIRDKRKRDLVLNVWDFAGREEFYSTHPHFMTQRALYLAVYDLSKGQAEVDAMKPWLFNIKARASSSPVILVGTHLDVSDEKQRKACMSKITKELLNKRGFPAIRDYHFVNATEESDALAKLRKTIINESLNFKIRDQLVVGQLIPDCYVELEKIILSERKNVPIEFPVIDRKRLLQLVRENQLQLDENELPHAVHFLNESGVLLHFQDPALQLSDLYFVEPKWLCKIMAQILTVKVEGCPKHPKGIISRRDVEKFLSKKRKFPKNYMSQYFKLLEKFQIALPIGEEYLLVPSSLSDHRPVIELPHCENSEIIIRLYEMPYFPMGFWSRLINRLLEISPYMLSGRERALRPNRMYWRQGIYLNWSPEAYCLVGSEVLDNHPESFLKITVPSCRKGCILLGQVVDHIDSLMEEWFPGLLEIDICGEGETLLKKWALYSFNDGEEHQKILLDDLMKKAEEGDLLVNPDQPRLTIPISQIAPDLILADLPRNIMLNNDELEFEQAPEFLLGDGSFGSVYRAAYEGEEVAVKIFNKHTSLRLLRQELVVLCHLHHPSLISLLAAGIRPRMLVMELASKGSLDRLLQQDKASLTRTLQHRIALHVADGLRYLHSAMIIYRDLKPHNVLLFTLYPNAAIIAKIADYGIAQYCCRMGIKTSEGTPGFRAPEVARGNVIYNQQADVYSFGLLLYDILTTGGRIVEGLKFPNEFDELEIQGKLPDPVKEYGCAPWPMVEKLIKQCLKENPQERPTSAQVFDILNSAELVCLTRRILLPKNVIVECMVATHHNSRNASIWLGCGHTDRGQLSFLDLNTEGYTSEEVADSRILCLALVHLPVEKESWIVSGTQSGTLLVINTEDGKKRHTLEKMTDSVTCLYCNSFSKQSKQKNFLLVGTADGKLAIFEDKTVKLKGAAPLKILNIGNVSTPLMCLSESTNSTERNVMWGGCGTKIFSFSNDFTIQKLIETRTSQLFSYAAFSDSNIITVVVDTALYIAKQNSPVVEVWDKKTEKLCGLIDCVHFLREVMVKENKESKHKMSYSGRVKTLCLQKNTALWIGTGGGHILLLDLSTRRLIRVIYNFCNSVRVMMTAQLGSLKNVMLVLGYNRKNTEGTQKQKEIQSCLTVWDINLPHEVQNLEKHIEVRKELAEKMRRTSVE
# Chain of High affinity nerve growth factor receptor (P04629 whole entry): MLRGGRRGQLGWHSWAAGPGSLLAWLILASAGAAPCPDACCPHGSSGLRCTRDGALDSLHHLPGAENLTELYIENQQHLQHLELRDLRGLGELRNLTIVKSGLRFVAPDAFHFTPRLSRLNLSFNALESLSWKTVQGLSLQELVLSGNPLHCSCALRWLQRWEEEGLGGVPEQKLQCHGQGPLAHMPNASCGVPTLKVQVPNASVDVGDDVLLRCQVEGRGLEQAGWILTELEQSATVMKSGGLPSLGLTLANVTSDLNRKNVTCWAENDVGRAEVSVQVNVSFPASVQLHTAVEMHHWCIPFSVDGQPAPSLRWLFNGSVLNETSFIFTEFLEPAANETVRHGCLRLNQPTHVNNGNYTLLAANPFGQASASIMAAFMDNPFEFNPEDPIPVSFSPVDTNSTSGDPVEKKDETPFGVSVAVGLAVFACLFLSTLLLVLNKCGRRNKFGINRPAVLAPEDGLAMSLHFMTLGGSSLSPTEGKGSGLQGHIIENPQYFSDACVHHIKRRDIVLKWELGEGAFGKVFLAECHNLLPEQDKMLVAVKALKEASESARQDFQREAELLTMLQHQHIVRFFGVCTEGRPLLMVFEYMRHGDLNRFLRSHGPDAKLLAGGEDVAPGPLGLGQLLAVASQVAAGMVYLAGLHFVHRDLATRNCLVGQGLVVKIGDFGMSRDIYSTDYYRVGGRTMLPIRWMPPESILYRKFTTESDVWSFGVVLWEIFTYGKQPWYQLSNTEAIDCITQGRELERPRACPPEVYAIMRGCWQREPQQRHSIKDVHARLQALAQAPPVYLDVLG
# Chain of Tyrosine-protein kinase receptor TYRO3 (Q06418 whole entry): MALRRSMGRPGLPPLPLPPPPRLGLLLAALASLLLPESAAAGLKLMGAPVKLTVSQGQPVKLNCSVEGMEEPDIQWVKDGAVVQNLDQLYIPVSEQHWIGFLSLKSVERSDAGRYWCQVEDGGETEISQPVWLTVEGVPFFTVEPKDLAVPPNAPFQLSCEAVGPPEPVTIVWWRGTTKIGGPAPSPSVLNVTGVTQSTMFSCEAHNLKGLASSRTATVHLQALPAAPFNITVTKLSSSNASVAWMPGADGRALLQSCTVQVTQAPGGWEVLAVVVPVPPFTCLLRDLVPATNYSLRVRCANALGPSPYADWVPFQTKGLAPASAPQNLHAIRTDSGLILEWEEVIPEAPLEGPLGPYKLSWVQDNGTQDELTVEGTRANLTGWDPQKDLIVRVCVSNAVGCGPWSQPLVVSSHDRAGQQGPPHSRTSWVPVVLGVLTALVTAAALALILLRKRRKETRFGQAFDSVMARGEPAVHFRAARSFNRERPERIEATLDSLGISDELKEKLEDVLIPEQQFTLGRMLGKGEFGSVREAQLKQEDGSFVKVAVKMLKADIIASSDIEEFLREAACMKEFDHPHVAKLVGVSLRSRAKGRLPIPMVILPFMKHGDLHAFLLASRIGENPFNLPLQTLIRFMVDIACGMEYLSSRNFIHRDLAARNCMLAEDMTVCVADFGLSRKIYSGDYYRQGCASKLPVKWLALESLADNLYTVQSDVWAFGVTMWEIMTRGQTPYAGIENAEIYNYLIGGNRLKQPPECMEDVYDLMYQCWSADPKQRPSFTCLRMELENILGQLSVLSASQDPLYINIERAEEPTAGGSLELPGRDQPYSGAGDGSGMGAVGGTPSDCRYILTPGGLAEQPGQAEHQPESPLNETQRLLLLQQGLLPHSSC
# Chain of Dual specificity mitogen-activated protein kinase kinase 1 (Q02750 whole entry): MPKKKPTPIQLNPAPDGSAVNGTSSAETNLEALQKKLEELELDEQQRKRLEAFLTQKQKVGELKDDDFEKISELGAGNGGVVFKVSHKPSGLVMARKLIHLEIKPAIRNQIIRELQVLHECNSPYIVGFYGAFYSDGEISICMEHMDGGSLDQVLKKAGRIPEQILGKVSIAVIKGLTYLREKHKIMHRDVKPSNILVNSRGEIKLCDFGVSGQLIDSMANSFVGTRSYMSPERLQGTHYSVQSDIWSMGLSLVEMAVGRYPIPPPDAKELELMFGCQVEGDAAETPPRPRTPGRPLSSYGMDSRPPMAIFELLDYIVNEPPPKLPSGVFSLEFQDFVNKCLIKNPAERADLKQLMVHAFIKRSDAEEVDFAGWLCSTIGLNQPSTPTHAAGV
smiles,measurement,setting,value
O=C(NCc1ccccc1)c1cc2ncc(Br)cn2n1,IC50,[1],> 99 µM (inactive)
same,IC50,[2],> 99 µM (inactive)
COc1cc2ncc3c(N)nc4c(C)c(N)ccc4c3c2cc1OC,Ki,[3],> 3.98 µM (inactive)
same,Ki,Aurora kinase A,> 1.58 µM (inactive)
same,Ki,[4],> 3.98 µM (inactive)
same,Ki,[5],> 6.31 µM (inactive)
same,Ki,[6],> 5.01 µM (inactive)
same,Ki,[7],> 3.98 µM (inactive)
same,Ki,[8],> 3.16 µM (inactive)
same,Ki,[9],> 3.16 µM (inactive)
same,Ki,[10],> 3.16 µM (inactive)
same,Ki,[11],> 3.16 µM (inactive)
same,Ki,[12],> 6.31 µM (inactive)
same,Ki,[13],> 2.51 µM (inactive)
same,Ki,[14],> 2.51 µM (inactive)
same,Ki,[15],> 100 µM (inactive)
same,Ki,[16],> 2.51 µM (inactive)
same,Ki,[17],> 2.51 µM (inactive)
same,Ki,[18],> 3.16 µM (inactive)
same,Ki,[19],> 3.98 µM (inactive)
same,Ki,[20],> 2.51 µM (inactive)
same,Ki,[21],> 2 µM (inactive)
same,Ki,[22],> 7.94 µM (inactive)
same,Ki,[23],> 3.98 µM (inactive)
same,Ki,[24],> 6.31 µM (inactive)
same,Ki,[25],> 3.98 µM (inactive)
same,Ki,[26],> 2.51 µM (inactive)
same,Ki,[27],> 3.16 µM (inactive)
same,Ki,[28],> 5.01 µM (inactive)
same,Ki,[29],> 3.98 µM (inactive)
same,Ki,[30],> 1.26 µM (inactive)
same,Ki,[31],0.158 µM (active)
same,Ki,[32],> 3.16 µM (inactive)
same,Ki,[33],> 3.98 µM (inactive)
same,Ki,[34],> 3.98 µM (inactive)
same,Ki,[35],> 6.31 µM (inactive)
same,Ki,[36],> 2.51 µM (inactive)
same,Ki,[37],> 3.98 µM (inactive)
same,Ki,[38],> 5.01 µM (inactive)
same,Ki,[39],> 1.58 µM (inactive)
same,Ki,[40],> 2.51 µM (inactive)
same,Ki,[41],> 3.16 µM (inactive)
same,Ki,[42],> 3.16 µM (inactive)
same,Ki,[43],3.16 µM (active)
same,Ki,Activin receptor type-1,> 3.98 µM (inactive)
same,Ki,[44],> 5.01 µM (inactive)
same,Ki,[45],> 3.16 µM (inactive)
same,Ki,[46],> 2.51 µM (inactive)
same,Ki,[47],> 3.98 µM (inactive)
same,Ki,[48],> 6.31 µM (inactive)
same,Ki,[49],0.0631 µM (active)
same,Ki,[50],> 3.98 µM (inactive)
same,Ki,[51],> 6.31 µM (inactive)
same,Ki,[52],> 2.51 µM (inactive)
same,Ki,[53],3.98 µM (active)
same,Ki,[54],> 3.98 µM (inactive)
same,Ki,Activated CDC42 kinase 1,> 3.98 µM (inactive)
same,Ki,[55],> 3.98 µM (inactive)

# — ChEMBL document CHEMBL1201862, “PubChem BioAssay data set” (2004)
